Data as given in patent publication US12698473B2, “Cell-containing structure” (Ricoh Company, Ltd., priority 2021, dated 2026).

Assays:
[1] = tested on: cultured product composed of cell masses containing hiPSC-Neuron and astrocytes derived from a human fetus; assay: Evaluation of electrophysiological neurotoxicity of test compound: firing frequency response on MEA plate; type: cell-based; settings: spontaneous firing frequency before exposure 200 Hz or more per 16 electrodes; compared with 4 times or more at 4 to <100 Hz; FIG. 10
Description: A multi-electrode array (MEA) plate was prepared as a cell-containing container which is a cell-containing structure of the present embodiment.
As a plate used for the MEA plate, CytoView MEA Plate (commercially available from Axion Biosystems) having 6×8 wells (a total of 48 wells) and a micro electrode array on the well bottom was used. […]
In the main test, the action potential of neurons adhered onto a micro electrode 3 arranged on the well bottom as shown in FIG. 1 was measured as an extracellular potential, and the neurotoxicity was evaluated from the change in extracellular potential when the test compound was treated. […]
That is, using maestro Pro (commercially available from Axion Biosystems), for the prepared MEA Cytoview Plate (commercially available from Axion Biosystems), the results of the extracellular potential of the cultured product 2 composed of cell masses containing hiPSC-Neuron and astrocytes derived from a human fetus, which were adhered to the well bottom 1 shown in FIG. 1 and FIG. 2, measured using maestro Pro for 10 minutes are illustrated as a raster plot 6 of FIG. 3 and a graph 7 of the number of detected spikes. […] The spontaneous firing frequency (Hz) can be detected from the number of peaks in the graph […]. […]

[2] = tested on: cultured product composed of cell masses containing hiPSC-Neuron and astrocytes derived from a human fetus; assay: Pharmacological test with anti-epileptic drugs on MEA plate (extracellular potential, raster plot, number of spikes); type: cell-based; settings: Before vs After drug exposure; FIGS. 6-8
Description: From 22 days after cell seeding, once a week, extracellular potential data was acquired for 10 minutes using an extracellular measurement device maestro (Axion Biosystems).
That is, using maestro Pro (commercially available from Axion Biosystems), for the prepared MEA Cytoview Plate (commercially available from Axion Biosystems), the results of the extracellular potential of the cultured product 2 composed of cell masses containing hiPSC-Neuron and astrocytes derived from a human fetus, which were adhered to the well bottom 1 shown in FIG. 1 and FIG. 2, measured using maestro Pro for 10 minutes are illustrated as a raster plot 6 of FIG. 3 and a graph 7 of the number of detected spikes. […] The spontaneous firing frequency (Hz) can be detected from the number of peaks in the graph 7 per hour.
Using the plate produced in Experimental Example 1, a pharmacological test was performed using various drugs. The effect of the drug was confirmed by exposing an anti-epileptic drug having a function of inhibiting nerve firing to a sample. The evaluated drugs were Carbamazepine, Phenytoin, and Zonisamide, and the measurement was performed under the same conditions as the measurement of the extracellular potential data of Experimental Example 1.
A graph of a raster plot that visualizes the firing state and the number of detected. spikes for each drug is shown for Carbamazepine in FIG. 6, Phenytoin in FIG. 7, and Zonisamide in FIG. 8. Before in the drawings indicates before drug exposure, and After indicates after drug exposure. In all of the drugs, it was observed that the spontaneous firing frequency that could be detected from the number of spikes after drug exposure was reduced, and the mode in which that firing activity of the nerve was reduced after drug exposure was confirmed. That is, it was observed that the plate of this example could be used for detection in the pharmacological test using various drugs.

Question: Which “response rate to the test compound (firing frequency after exposure)” value [1] does the source give for `Nc1ccncc1` [4-AP] here?
Answer: about half that

Question: Which “spontaneous firing frequency detected from the number of spikes after drug exposure” value (“spontaneous firing frequency detected” for short) [2] does the source give for `NC(=O)N1c2ccccc2C=Cc2ccccc21` [Carbamazepine] here?
Answer: reduced

Question: For `O=C1NC(=O)C(c2ccccc2)(c2ccccc2)N1` [Phenytoin], which “spontaneous firing frequency detected” value [2] is on record?
Answer: reduced

Question: `CC[C@@H]1C(=O)OC[C@@H]1Cc1cncn1C` [Pilocarpine] was tested. Which “response rate to the test compound (firing frequency after exposure)” value [1] did it give?
Answer: about half that

Question: How did the “spontaneous firing frequency detected” value [2] turn out when `NS(=O)(=O)Cc1noc2ccccc12` [Zonisamide] was run?
Answer: reduced
